# Measured values published in patent US20230159532A1, “PARATHYROID HORMONE (PTH) RECEPTOR ANTAGONISTS AND USES THEREOF” (Crinetics Pharmaceuticals, Inc., priority 2021, published 2023).
# Biological target: T1, human PTHR1 receptor (Homo sapiens, UniProt Q03431)
# T1 construct: purchased Eurofins HTS030M
# T1 sequence (Q03431 27-593): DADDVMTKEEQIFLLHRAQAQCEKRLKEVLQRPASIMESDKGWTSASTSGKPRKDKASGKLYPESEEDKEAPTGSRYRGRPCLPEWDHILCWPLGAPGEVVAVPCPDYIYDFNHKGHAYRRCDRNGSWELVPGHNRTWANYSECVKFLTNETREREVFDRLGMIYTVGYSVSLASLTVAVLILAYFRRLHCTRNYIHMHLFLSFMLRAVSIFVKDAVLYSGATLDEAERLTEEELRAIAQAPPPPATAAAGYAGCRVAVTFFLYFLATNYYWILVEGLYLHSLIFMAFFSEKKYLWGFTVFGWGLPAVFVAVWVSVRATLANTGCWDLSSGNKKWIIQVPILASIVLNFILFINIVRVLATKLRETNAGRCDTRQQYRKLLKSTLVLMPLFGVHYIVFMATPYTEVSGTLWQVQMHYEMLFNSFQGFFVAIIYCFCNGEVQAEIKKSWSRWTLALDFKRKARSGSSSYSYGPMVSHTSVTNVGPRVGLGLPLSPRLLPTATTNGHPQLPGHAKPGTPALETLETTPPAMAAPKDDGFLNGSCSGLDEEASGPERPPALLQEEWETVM
# Experiment: Competitive antagonist binding assay for hPTH-R1 (radioactive competition binding, SPA beads)
# Conditions: human PTHR1 membranes, [125I]-[Nle8,18,Tyr34]-PTH(1-34) 0.2 nM, 90 minutes at room temperature; read-out: hPTHR1 Ki
# In short: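 Human PTHR1 membranes on SPA beads incubated 90 min at room temperature with compound (typically 0-10,000 nM final) and 0.2 nM [125I]-[Nle8,18,Tyr34]-PTH(1-34) in HEPES buffer with MgCl2, CaCl2, BSA, Triton X-100 and protease inhibitors, pH 7.4. Scintillation signal read; Ki values derived.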
row,Structure (SMILES),Ki
1,"CCN1C(=O)N(c2c(F)cc(NCCN)cc2F)c2cc(Cl)ccc2-c2cc(C)cnc21 [1-22, 10-{4-[(2-aminoethyl)amino]-2,6-difluorophenyl}-13-chloro-8-ethyl-4-methyl-6,8,10-triazatricyclo[9.4.0.0^2,7]pentadeca-1(11),2(7),3,5,12,14-hexaen-9-one]",< 0.1 µM
2,"CCN1C(=O)N(c2c(F)cc(NCCNCCS(=O)(=O)O)cc2F)c2cc(C#N)ccc2-c2cc(Cl)cnc21 [1-141, 2-({2-[(4-{4-chloro-13-cyano-8-ethyl-9-oxo-6,8,10-triazatricyclo[9.4.0.0^2,7]pentadeca-1(11),2(7),3,5,12,14-hexaen-10-yl}-3,5-difluorophenyl)amino]ethyl}amino)ethane-1-sulfonic acid]",< 0.1 µM
3,"CCN1C(=O)N(c2c(F)cc(NCCNCC3CCCN3)cc2F)c2cc(C#N)ccc2-c2cc(Cl)cnc21 (centres unmarked) [1-238, 4-chloro-10-{2,6-difluoro-4-[(2-{[(pyrrolidin-2-yl)methyl]amino}ethyl)amino]phenyl}-8-ethyl-9-oxo-6,8,10-triazatricyclo[9.4.0.0^2,7]pentadeca-1(15),2(7),3,5,11,13-hexaene-13-carbonitrile]",< 0.1 µM
4,"CCN1C(=O)N(c2c(F)cc(NCCC(=O)O)cc2F)c2cc(Cl)ccc2-c2cc(Cl)cnc21 [1-50, 3-[(4-{4,13-dichloro-8-ethyl-9-oxo-6,8,10-triazatricyclo[9.4.0.0^2,7]pentadeca-1(11),2(7),3,5,12,14-hexaen-10-yl}-3,5-difluorophenyl)amino]propanoic acid]",> 10 µM
5,"CCN1C(=O)N(c2c(F)cc(NCCNCCOCCC(=O)O)cc2F)c2cc(C#N)ccc2-c2cc(Cl)cnc21 [1-229, 3-[2-({2-[(4-{4-chloro-13-cyano-8-ethyl-9-oxo-6,8,10-triazatricyclo[9.4.0.0^2,7]pentadeca-1(11),2(7),3,5,12,14-hexaen-10-yl}-3,5-difluorophenyl)amino]ethyl}amino)ethoxy]propanoic acid]",< 0.1 µM
6,"CCN1C(=O)N(c2c(F)cc(NCCNCCN(C)C)cc2F)c2cc(C#N)ccc2-c2cc(Cl)cnc21 [1-132, 4-chloro-10-{4-[(2-{[2-(dimethylamino)ethyl]amino}ethyl)amino]-2,6-difluorophenyl}-8-ethyl-9-oxo-6,8,10-triazatricyclo[9.4.0.0^2,7]pentadeca-1(11),2(7),3,5,12,14-hexaene-13-carbonitrile]",< 0.1 µM
7,"CCN1C(=O)N(c2c(F)cc(NCCNC3CCOC3)cc2F)c2cc(Cl)ccc2-c2cc(C)cnc21 (centres unmarked) [1-28, 13-chloro-10-[2,6-difluoro-4-({2-[(oxolan-3-yl)amino]ethyl}amino)phenyl]-8-ethyl-4-methyl-6,8,10-triazatricyclo[9.4.0.0^2,7]pentadeca-1(11),2(7),3,5,12,14-hexaen-9-one]",< 0.1 µM
8,"CCN1C(=O)N(c2ccc(NCCNC)cc2)c2cc(Cl)ccc2-c2cc(F)cnc21 [2-4, 13-chloro-8-ethyl-4-fluoro-10-(4-{[2-(methylamino)ethyl]amino}phenyl)-6,8,10-triazatricyclo[9.4.0.0^2,7]pentadeca-1(11),2(7),3,5,12,14-hexaen-9-one]",< 0.1 µM
9,"CCN1C(=O)N(c2c(F)cc(NCCNC)cc2F)c2cc(Cl)cc(Cl)c2-c2cc(F)cnc21 [1-38, 13,15-dichloro-10-(2,6-difluoro-4-{[2-(methylamino)ethyl]amino}phenyl)-8-ethyl-4-fluoro-6,8,10-triazatricyclo[9.4.0.0^2,7]pentadeca-1(11),2(7),3,5,12,14-hexaen-9-one]",< 0.1 µM
10,"CCN1C(=O)N(c2c(F)cc(NCCNC)cc2F)c2cc(Cl)ccc2-c2cc(Cl)cnc21 [1-8, 4,13-dichloro-10-(2,6-difluoro-4-{[2-(methylamino)ethyl]amino}phenyl)-8-ethyl-6,8,10-triazatricyclo[9.4.0.0^2,7]pentadeca-1(11),2(7),3,5,12,14-hexaen-9-one]",< 0.1 µM
11,"CCN1C(=O)N(c2c(F)cc(NCCNCCO)cc2F)c2cc(Cl)ccc2-c2c1ncc(Cl)c2C [3-4, 4,13-dichloro-10-[2,6-difluoro-4-({2-[(2-hydroxyethyl)amino]ethyl}amino)phenyl]-8-ethyl-3-methyl-6,8,10-triazatricyclo[9.4.0.0^2,7]pentadeca-1(11),2(7),3,5,12,14-hexaen-9-one]",< 0.1 µM
12,"CCN1C(=O)N(c2c(F)cc(NCCNCCNC(=O)NC)cc2F)c2cc(C#N)ccc2-c2cc(F)cnc21 [1-172, 1-[2-({2-[(4-{13-cyano-8-ethyl-4-fluoro-9-oxo-6,8,10-triazatricyclo[9.4.0.0^2,7]pentadeca-1(11),2(7),3,5,12,14-hexaen-10-yl}-3,5-difluorophenyl)amino]ethyl}amino)ethyl]-3-methylurea]",< 0.1 µM
13,"CCN1C(=O)N(c2c(F)cc(NCCNCCCC(=O)O)cc2F)c2cc(Cl)ccc2-c2cc(Cl)cnc21 [1-10, 4-({2-[(4-{4,13-dichloro-8-ethyl-9-oxo-6,8,10-triazatricyclo[9.4.0.0^2,7]pentadeca-1(11),2(7),3,5,12,14-hexaen-10-yl}-3,5-difluorophenyl)amino]ethyl}amino)butanoic Acid]",< 0.1 µM
14,"CCN1C(=O)N(c2c(F)cc(NCCNC)cc2F)c2cc(C#N)ccc2-c2cc(Cl)cnc21 [1-54, 4-chloro-10-(2,6-difluoro-4-{[2-(methylamino)ethyl]amino}phenyl)-8-ethyl-9-oxo-6,8,10-triazatricyclo[9.4.0.0^2,7]pentadeca-1(11),2(7),3,5,12,14-hexaene-13-carbonitrile]",< 0.1 µM
15,"CCN1C(=O)N(c2c(F)cc(NC[C@@H]3COCCN3)cc2F)c2cc(C#N)ccc2-c2cc(Cl)cnc21 [1-151, 4-chloro-10-[2,6-difluoro-4-({[(3R)-morpholin-3-yl]methyl}amino)phenyl]-8-ethyl-9-oxo-6,8,10-triazatricyclo[9.4.0.0^2,7]pentadeca-1(11),2(7),3,5,12,14-hexaene-13-carbonitrile]",< 0.1 µM
16,"CCN1C(=O)N(c2c(F)cc(NCCNC3CCOCC3)cc2F)c2cc(Cl)ccc2-c2cc(F)cnc21 [1-19, 13-chloro-10-[2,6-difluoro-4-({2-[(oxan-4-yl)amino]ethyl}amino)phenyl]-8-ethyl-4-fluoro-6,8,10-triazatricyclo[9.4.0.0^2,7]pentadeca-1(11),2(7),3,5,12,14-hexaen-9-one]",< 0.1 µM
17,"CCN1C(=O)N(c2c(F)cc(N3CC[C@@H](N)C3)cc2F)c2cc(Cl)ccc2-c2cc(Cl)cnc21 [1-42, 10-{4-[(3R)-3-aminopyrrolidin-1-yl]-2,6-difluorophenyl}-4,13-dichloro-8-ethyl-6,8,10-triazatricyclo[9.4.0.0^2,7]pentadeca-1(11),2(7),3,5,12,14-hexaen-9-one]",< 0.1 µM
18,"CCN1C(=O)N(c2ccc(NCCNC)cc2)c2cc(OC)ccc2-c2cc(Cl)cnc21 [2-6, 4-chloro-8-ethyl-13-methoxy-10-(4-{[2-(methylamino)ethyl]amino}phenyl)-6,8,10-triazatricyclo[9.4.0.0^2,7]pentadeca-1(11),2(7),3,5,12,14-hexaen-9-one]",< 0.1 µM
19,"CCN1C(=O)N(c2c(F)cc(NCCN[C@H]3CC[C@H](C(=O)O)CC3)cc2F)c2cc(C#N)ccc2-c2cc(Cl)cnc21 [1-193, (1r,4r)-4-({2-[(4-{4-chloro-13-cyano-8-ethyl-9-oxo-6,8,10-triazatricyclo[9.4.0.0^2,7]pentadeca-1(11),2(7),3,5,12,14-hexaen-10-yl}-3,5-difluorophenyl)amino]ethyl}amino)cyclohexane-1-carboxylic acid]",< 0.1 µM
20,"CCN1C(=O)N(c2c(F)cc(NCCNCCCC(=O)O)cc2F)c2cc(C#N)cc(F)c2-c2cc(Cl)cnc21 [1-101, 4-({2-[(4-{4-chloro-13-cyano-8-ethyl-15-fluoro-9-oxo-6,8,10-triazatricyclo[9.4.0.0^2,7]pentadeca-1(11),2(7),3,5,12,14-hexaen-10-yl}-3,5-difluorophenyl)amino]ethyl}amino)butanoic acid]",< 0.1 µM
21,"CCN1C(=O)N(c2c(F)cc(NCCN[C@@H]3CC[C@H]3O)cc2F)c2cc(C#N)ccc2-c2cc(Cl)cnc21 [1-179, 4-chloro-10-{2,6-difluoro-4-[(2-{[(1R,2R)-2-hydroxycyclobutyl]amino}ethyl)amino]phenyl}-8-ethyl-9-oxo-6,8,10-triazatricyclo[9.4.0.0^2,7]pentadeca-1(11),2(7),3,5,12,14-hexaene-13-carbonitrile]",< 0.1 µM
22,"CCN1C(=O)N(c2c(F)cc(NCCN3CCC(O)C3)cc2F)c2cc(C#N)ccc2-c2cc(Cl)cnc21 (centres unmarked) [1-164, 4-chloro-10-(2,6-difluoro-4-{[2-(3-hydroxypyrrolidin-1-yl)ethyl]amino}phenyl)-8-ethyl-9-oxo-6,8,10-triazatricyclo[9.4.0.0^2,7]pentadeca-1(11),2(7),3,5,12,14-hexaene-13-carbonitrile]",< 0.1 µM
23,"O=C1N(CC2CC2)c2ncc(Cl)cc2-c2ccc(Cl)cc2N1c1c(F)cc(NCCNCCO)cc1F [1-52, 4,13-dichloro-8-(cyclopropylmethyl)-10-[2,6-difluoro-4-({2-[(2-hydroxyethyl)amino]ethyl}amino)phenyl]-6,8,10-triazatricyclo[9.4.0.0^2,7]pentadeca-1(11),2(7),3,5,12,14-hexaen-9-one]",< 0.1 µM
